Consider two compounds from patent US20250368639A1, “SOLID FORMS OF A COMPOUND FOR TREATING OR PREVENTING HYPERURICEMIA OR GOUT” (ATOM THERAPEUTICS CO., LTD, priority 2022, published 2025).

Data set [1] is described as follows: Uric acid excretion in mice. The format is in vivo. The settings on record: in comparison with other treatments.
In another data set the target is T1, URAT1 (Homo sapiens, UniProt Q96S37).
T1 sequence (Q96S37 1-553): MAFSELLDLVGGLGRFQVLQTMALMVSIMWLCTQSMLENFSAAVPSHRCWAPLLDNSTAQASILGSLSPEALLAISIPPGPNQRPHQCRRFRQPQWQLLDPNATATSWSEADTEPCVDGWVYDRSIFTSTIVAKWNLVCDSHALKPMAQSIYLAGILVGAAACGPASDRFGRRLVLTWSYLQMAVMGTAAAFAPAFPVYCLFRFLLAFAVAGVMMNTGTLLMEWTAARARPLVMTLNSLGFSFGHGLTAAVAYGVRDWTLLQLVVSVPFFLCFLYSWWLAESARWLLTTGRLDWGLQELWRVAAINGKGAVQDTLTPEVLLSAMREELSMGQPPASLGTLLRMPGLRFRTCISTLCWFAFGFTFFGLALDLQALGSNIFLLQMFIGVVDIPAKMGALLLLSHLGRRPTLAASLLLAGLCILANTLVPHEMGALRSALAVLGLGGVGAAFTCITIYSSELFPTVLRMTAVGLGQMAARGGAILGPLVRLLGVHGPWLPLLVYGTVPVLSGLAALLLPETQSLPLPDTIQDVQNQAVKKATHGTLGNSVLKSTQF
Kind of data set: Inhibitory effect on URAT1. The settings on record: in comparison with other treatments.

For data set [2] the following is noted: rat, in vivo.
A further data set concerns normal liver cells. Kind of data set: Toxicity to normal liver cells. The settings on record: in comparison with other treatments. Type of data set: cell-based.
Data set [3] is described as follows: Suspensions for animal formulation in 0.5% CMC-Na (XRPD). The format is physicochemical. The settings on record: about 30 mg in 30 ml, sonication. The protocol: About 30 mg of Form 1, Form 2, and Form 5D were each added into a respective 40 ml glass bottle and mixed with 30 ml of 0.5% CMC-Na solution. The solids were dispersed uniformly in the solution with the aid of sonication. After that, the solids were isolated by centrifugation, dried at room temperature, and the dry solid analyzed with XRPD.

A short description of data set [4]: Solubility in water, buffers and bio-relevant media (37° C., 24 h shaking, HPLC). The format is physicochemical. The settings on record: for Solubility: 37° C., 24 h. As to the method:
The solubility of Form 1, Form 2, Form 5D, Form 6, Form 8, and Form 11 was analyzed in water, 0.1NaqueousHCl, pH4.5 acetate buffer solution, pH6.8 phosphate buffer solution, simulated gastric fluid (SGF), Fasted State Simulated Intestinal Fluid (FaSSIF), and Fed State Simulated Intestinal Fluid (FeSSIF).
About 5 mg or 10 mg of sample was weighed out into each vial and mixed with about 5 ml of medium to form a solution. The target concentration for the potassium salt in water was 2 mg/ml; and the target concentration for all other forms were 1 mg/mL. All samples were kept shaking at 200 rounds per minute (rpm) under 37° C. for 24 hours. The pH value of these samples were determined after shaking for 24 hours. Subsequently, they were centrifuged at the speed of 12000 rpm for 2 mins. The supernatant was diluted with methanol as necessary, and the concentrations were determined by HPLC. When the solubility of potassium salt was tested in water, the supernatant was diluted 100 times, while no other samples were diluted. The HPLC analysis utilizes Agilent Eclipse XDB-C8 4.6*150 mm, 5 μm column at 40° C., a mobile phase of 0.1% TFA: ACN=70:30, an injection volume of 10 μl, a flow rate of 1.0 ml/min, a diluent of methanol, and a detection wavelength of 234 nm.

Data set [5] in a line: Slurry stability in purified water (XRPD). Type of data set: physicochemical. To be noted: stirred overnight at room temperature. As to the method:
About 30 mg of Form land Form 5D, Form 6, and Form 8 were mixed with about 2.5 ml of purified water, and the mixtures were stirred for overnight at room temperature. The wet solids were isolated by centrifugation, and further dried in vacuum for 2.5 hours before being analyzed with XRPD.

Data set [6] can be described thus: Dynamic vapor sorption/desorption (DVS). The format is physicochemical. The settings on record: 25° C., 85% RH. As to the method:
Moisture sorption/desorption data were collected on a SMS DVS intrinsic Vapor Sorption Analyzer under a nitrogen purge. The DVS experiment generally includes a moisture sorption step and a moisture desorption step. […] In other words, the sample is considered to have reached an equilibrium between moisture sorption and desorption under the relative humidity when dm/dt≤0.01%. The sample was maintained at the temperature of 25° C. with relative humidity varied from 0% to 95%, and back to 0% at an increment of 5% RH each step.

Data set [7] is described as follows: Single-dose pharmacokinetic study, oral and intravenous, in SD rats.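 On AUClast: AUClast in h·ng/mL.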 Type of data set: in vivo, SD rat. To be noted: for AUC(0-inf): read-out: AUCINF—pred; for half-life: read-out: HL_Lambda_z (T1/2) (converted); for Vd/F: read-out: Vz—F—pred. As to the method:
Form 1, Form 2, and Form 5D were each evaluated via a single-dose pharmacokinetic study following oral and intravenous administration in SD rats. […] Form 1, Form 2, and Form 5Dwere evaluated by rat pharmacokinetics study.
Male SD rat was purchased from Shanghai Sippr B&K Laboratory Animals Co., Ltd. The weight was 180 g˜200 g.
20% HP-β-CD was prepared from dissolving20 g of HP-β-CD (from Sigma) in 100 mL purified water. 0.5% CMC-Na was prepared from dissolving 1 g of CMC-Na (from Aladdin) in 200 mL purified water. The solutions were stored at 2-8 degree.
Group 1:4.95 mg (equivalent to 4.50 mg of anhydrous free base) of Form 1 was weighed out into a 20 ml bottle, and totally dissolved by 0.225 mL DMSO by sonication. After that, 4.275 mL of 20% HP-β-CD was added, mixed well by sonication. Finally, the pH value was adjusted to 7.0 by sodium hydroxide solution. The clear solution was obtained, and the concentration was 1 mg/mL.
Group 2:10.08 mg (equivalent to 9.164 mg of anhydrous free base) of Form 1 was weighed out into a 20 ml bottle, and then 9.164 mL of 0.5% CMC-Na was added. A white suspension was formed after sonicated by ultrasonic cell disruptor, and the concentration was 1 mg/mL.
Group 3:9.47 mg of Form 2 was weighed out into a 20 ml bottle, and then 9.470 mL of 0.5% CMC-Na was added. After sonicated, it was mixed well by homogenizer for 2 minutes. Finally, a white suspension was formed, and the concentration was 1 mg/mL.
Group 4:9.80 mg (equivalent to 8.909 mg of free base) of Form 5Dwas weighed out into a 20 mL bottle, and then 8.909 mL of 0.5% CMC-Na was added. After sonicated, it was mixed well by homogenizer for 2 minutes. Finally, a white suspension was formed, and the concentration was 1 mg/mL.
Group 5:1.94 mg (equivalent to 1.763 mg of anhydrous free base) of Form 1 was weighed out into a 20 ml bottle, and totally dissolved by 0.088 mL DMSO by sonication. After that, 1.675 mL of 20% HP-β-CD was added, mixed well by sonication. Finally, the pH value was adjusted to 7.0 by sodium hydroxide solution. The clear solution was obtained, and the concentration was 0.2 mg/mL.
The dose of intravenous administration was 1 mg/kg and 5 mg/kg, respectively. The oral dose was 10 mg/kg. Animals were fasted overnight before drug administration. After the drug administration, the rats were fed at the 4 hours.
About 150˜200 μL of blood was collected at the initial time (only intravenous), and at 0.25, 0.5, 1, 2, 4, 6, 8 and 24 h by jugular venipuncture blooding method. EDTA-K2 was selected as anticoagulant. Blood samples were centrifuged within one hour at 6000 rpm for 8 minutes (placed on wet ice before centrifugation). The supernatant was stored at −20° C. for LC-MS/MS analysis.
The computer program Microsoft Office Excel 2007 (Microsoft, USA) was used to process data and graphics. The pharmacokinetic parameters were calculated by WinNolin 6.4 software.

Where [8] appears, read: male SD rats, oral 10 mg/kg, Average (Table 11).
Where [9] appears, read: male, SD, rat, plasma, po, 10 mg/kg, male SD rats, oral 10 mg/kg, Average (Table 11).
Setting [10] is: male, SD, rat, plasma, po, 10 mg/kg, male SD rats, oral 10 mg/kg, individual rats 401/402/403 (c1/c2/c3).

The structures appear in SMILES notation. Values after ≈ are worked out from the molar mass of the structure shown. Where two headings read alike, the source gives them in different places.

Turning to `CCc1nc2ccccn2c1C(=O)c1cc(Br)c(O)c(C#N)c1` [Compound I, 3-bromo-5-[(2-ethylimidazo[1,2-a]pyridin-3-yl)carbonyl]-2-hydroxybenzonitrile], in [1], the Uric acid excretion result was “significantly increase uric acid excretion in mice”. The “Inhibitory effect on URAT1” value at URAT1 was “significantly improve the inhibitory effect on URAT1”. The “Toxicity (oral maximum tolerated dose, acute toxicity test)” value in data set [2] is “much lower than other treatments”. In addition, the “Toxicity to normal liver cells” value in the data set on normal liver cells is “reduce the toxicity to normal liver cells”.
Regarding `CCc1nc2ccccn2c1C(=O)c1cc(Br)c(O)c(C#N)c1` [Form 5D, 3-bromo-5-[(2-ethylimidazo[1,2-a]pyridin-3-yl)carbonyl]-2-hydroxybenzonitrile], the “Crystal form after dispersion in 0.5% CMC-Na solution (XRPD)” value in data set [3] was “did not change”. In addition, the Solubility in data set [4] (0.1N HCl) stood at 8.3 µg/mL (≈ 22.4 µM). In data set [4] (FaSSIF), the Solubility was determined as 55.8 µg/mL (≈ 151 µM). This compound also returned a Solubility in data set [4] (FeSSIF) of 5.4 µg/mL (≈ 14.6 µM). In data set [4] (SGF), this compound gave a Solubility of 7.4 µg/mL (≈ 20 µM). This compound also returned a Solubility in data set [4] (Water) of 0.8 µg/mL (≈ 2.16 µM). Moreover, in [4] (pH 4.5 acetate buffer), the Solubility came out at 1.3 µg/mL (≈ 3.51 µM). For the same compound, in data set [4] (pH 6.8 phosphate buffer), the Solubility amounted to 47.7 µg/mL (≈ 129 µM). For the same compound, the “Appearance / solubility in water” value in data set [4] (water, shaken about 24 hours, compared with Form 1) is reported as “reduced solubility in water”. Besides, the “Crystal form after slurry in purified water (XRPD)” value in data set [5] is “transformed into Form 1”. In [6], the “DVS (85% RH)” value amounted to 2.14%. Also, the “Exposure and bioavailability (words, comparison)” value in data set [7] (SD rats, oral administration 10 mg/kg, 10 mg/kg) is “approximately the same as results from third parties”. Moreover, in [7] (setting [8]), the AUClast came out at 91914.8 ng·h/mL and the “Cl—F—pred” value was 1.83 mL/min/kg. In addition, in [7] (male SD rats, oral 10 mg/kg, calculated by intravenous administration of 1 mg/kg, Average (Table 11)), the F is reported as 52.96%. In data set [7] (setting [9]), the Cmax stood at 8980 ng/mL, the MRT last is 5.95 h, the Tmax was 3.33 h and the AUC(0-inf) was 92700 ng·h/mL. For the same compound, in data set [7] (setting [9]), the half-life was 3.4 h and the Vd/F was 0.53 L/kg. Also, in data set [7] (setting [10]), the exposure AUC(0-t) came out at 84700 ng·h/mL, the peak concentration (Cmax) came out at 8540 ng/mL, the MRT last turned out to be 6.11 h and the time of peak concentration (Tmax) amounted to 4 h. Moreover, in data set [7] (setting [10]), the AUC(0-inf) turned out to be 96600 ng·h/mL, the half-life was 3.55 h and the Vd/F was 0.53 L/kg.
